Among the data in PubChem BioAssay (NCI) are TGI and GI50 values, retold here.

Some test systems named below: 786-0 renal; HCT-116 colon; HL-60(TB) leukemia; HOP-62 NSCLC; HS 578T breast; MDA-MB-231 breast; OVCAR-8 ovarian; RXF 393 renal; SK-MEL-28 melanoma; SN12C renal; SW-620 colon.
Common to all, as to experiment: NCI tumour cell line growth inhibition, 48 h

Molecules are shown by their SMILES.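 Following 48 hours of exposure in 96-well plates, responses at five concentrations were used to interpolate endpoints linearly. GI50 marks 50% less growth. TGI: total growth inhibition.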 A value given as a limit tells only on which side of the number the result lay.

With `CCC(NC(C)c1ccccc1)C(=O)c1ccc(OCc2ccccc2)c(OCc2ccccc2)c1` (stereo not given), the TGI with 786-0 renal, in the test with HCT-116 colon, in the test on HL-60(TB) leukemia, in the test on HOP-62 NSCLC, in the test on HS 578T breast and in the test on MDA-MB-231 breast was greater than 100 µM each time. Also, the TGI with OVCAR-8 ovarian, in the test on RXF 393 renal, in the test with SK-MEL-28 melanoma, in the test on SN12C renal and with SW-620 colon was greater than 100 µM each time.
Turning to `CO/C(N)=C(\C#N)N=Cc1ccc2ccccc2c1`, the TGI in the test with 786-0 renal is greater than 100 µM; in the test on HCT-116 colon, greater than 100 µM; with HL-60(TB) leukemia, 15.6 µM; in the test on HOP-62 NSCLC it was greater than 100 µM; with HS 578T breast, greater than 100 µM; with MDA-MB-231 breast it was greater than 100 µM. In addition, the TGI in the test on OVCAR-8 ovarian, in the test with RXF 393 renal, in the test with SK-MEL-28 melanoma, in the test with SN12C renal and with SW-620 colon was greater than 100 µM in each case.
As for `CCN(CC)CCCNc1c2c(Cl)cc(Cl)cc2nc2nc(=O)[nH]c(C)c12`, the TGI was 38.1 µM in the test on 786-0 renal; 36.9 µM with HCT-116 colon; greater than 100 µM with HL-60(TB) leukemia; 64.7 µM in the test on HOP-62 NSCLC; greater than 100 µM in the test with HS 578T breast; 33.8 µM in the test with MDA-MB-231 breast. The TGI in the test on OVCAR-8 ovarian was greater than 10 µM; with RXF 393 renal it was greater than 100 µM; with SK-MEL-28 melanoma it was 95.2 µM; with SN12C renal, greater than 100 µM; with SW-620 colon, 37.9 µM.
As to `CC1(C)C2CCC3CC(CCC#N)CCC3C21C#N` (stereo not given), the TGI in the test on 786-0 renal, in the test with HCT-116 colon, in the test on HL-60(TB) leukemia, in the test with HOP-62 NSCLC, with HS 578T breast and with MDA-MB-231 breast was greater than 100 µM throughout. The TGI in the test with OVCAR-8 ovarian, in the test on RXF 393 renal, in the test with SK-MEL-28 melanoma, in the test with SN12C renal and in the test on SW-620 colon was greater than 100 µM in each case.
Consider `COc1ccc(/C=c2\c(=O)[nH]c3nc4ccccc4c(=O)n23)cc1`, for which the TGI with 786-0 renal, with HCT-116 colon, in the test on HL-60(TB) leukemia, with HOP-62 NSCLC, in the test on HS 578T breast and with MDA-MB-231 breast was greater than 100 µM each time. Besides, the TGI with OVCAR-8 ovarian, in the test on RXF 393 renal, in the test on SK-MEL-28 melanoma, with SN12C renal and in the test with SW-620 colon was greater than 100 µM throughout.
As to `CN(C)c1ccc(/C=C/C(=O)c2ccc(O)cc2)cc1`, the TGI with 786-0 renal was greater than 78.3 µM; in the test on HCT-116 colon it was greater than 68 µM; in the test with HL-60(TB) leukemia, 5.57 µM; with HOP-62 NSCLC it was greater than 100 µM; with HS 578T breast it was greater than 69.7 µM; in the test on MDA-MB-231 breast, greater than 91.5 µM. Also, the TGI in the test with OVCAR-8 ovarian, in the test with RXF 393 renal, in the test on SK-MEL-28 melanoma, with SN12C renal and with SW-620 colon was greater than 100 µM throughout.
For the compound `COc1ccc(C2c3cc4c(cc3OC(NNc3ccccc3)C2C)OCO4)cc1` (stereo not given), the TGI is 51.8 µM with 786-0 renal; 43.2 µM in the test with HCT-116 colon; 20.8 µM in the test on HL-60(TB) leukemia; 20.2 µM in the test on HOP-62 NSCLC; greater than 100 µM with HS 578T breast; greater than 100 µM with MDA-MB-231 breast. In addition, the TGI in the test with OVCAR-8 ovarian was 63.5 µM; in the test on RXF 393 renal, 54.3 µM; in the test with SK-MEL-28 melanoma, greater than 100 µM; in the test with SN12C renal, 50.8 µM; in the test with SW-620 colon, greater than 100 µM.
Turning to `CC1(C)CCN2C(=O)C34CCCC3CC21S4` (stereo not given), the TGI in the test on 786-0 renal, with HCT-116 colon, in the test on HL-60(TB) leukemia, in the test with HOP-62 NSCLC, with HS 578T breast and with MDA-MB-231 breast was greater than 100 µM each time. Also, the TGI in the test on OVCAR-8 ovarian, in the test with RXF 393 renal, in the test on SK-MEL-28 melanoma, with SN12C renal and with SW-620 colon was greater than 100 µM throughout.
As for `Clc1ccc(Cl)c(N=Nc2cc3c4c(c2)CCN4CCC3)c1`, the TGI in the test on 786-0 renal, in the test on HCT-116 colon, in the test with HL-60(TB) leukemia, in the test with HOP-62 NSCLC, in the test on HS 578T breast and in the test with MDA-MB-231 breast was greater than 10 µM throughout. Besides, the TGI in the test on OVCAR-8 ovarian, with RXF 393 renal, in the test with SK-MEL-28 melanoma, with SN12C renal and in the test with SW-620 colon was greater than 10 µM throughout.
Turning to `COC(=O)C(CC(C)C)NC(=O)C(NC(=O)c1ccc(-c2ccc(Cl)cc2Cl)o1)C(C)C` (stereo not given), the TGI was 35.1 µM in the test on 786-0 renal; 29.2 µM in the test with HCT-116 colon; 30.8 µM in the test on HL-60(TB) leukemia; 65.4 µM with HOP-62 NSCLC; 60.8 µM with HS 578T breast; 35.3 µM in the test with MDA-MB-231 breast. The TGI in the test with OVCAR-8 ovarian was greater than 100 µM; in the test with RXF 393 renal, 47.2 µM; in the test on SK-MEL-28 melanoma, greater than 100 µM; in the test on SN12C renal it was 39.2 µM; in the test on SW-620 colon it was greater than 100 µM.
As to `COC1(CC[C@@H](C)COC2OC(CO)C(O)C(O)C2O)O[C@H]2C[C@H]3[C@@H]4CC=C5C[C@@H](OC6OC(CO)C(OC7OC(C)C(O)C(O)C7O)C(O)C6OC6OC(C)C(O)C(O)C6O)CC[C@]5(C)[C@H]4CC[C@]3(C)[C@H]2[C@@H]1C` (stereo not given in full), the TGI turned out to be 4.02 µM in the test with 786-0 renal; 10.4 µM with HCT-116 colon; 13.4 µM in the test with HL-60(TB) leukemia; 4.04 µM in the test with HOP-62 NSCLC; 3.99 µM in the test with HS 578T breast; 6.66 µM in the test with MDA-MB-231 breast. The TGI in the test on OVCAR-8 ovarian was 8.47 µM; with RXF 393 renal, 5.45 µM; in the test on SK-MEL-28 melanoma, 5.53 µM; in the test with SW-620 colon it was 2.21 µM. Also, the GI50 is 1.96 µM in the test on HCT-116 colon; 3.47 µM in the test on HL-60(TB) leukemia; 1.18 µM with HS 578T breast; 2.39 µM in the test with OVCAR-8 ovarian; 1.92 µM with RXF 393 renal; 2.26 µM with SK-MEL-28 melanoma. The values for the GI50 with SN12C renal and with SW-620 colon were 2.87 µM and 0.795 µM, respectively.
With `C[C@@H](CC(O)C(O)C(C)(C)O)C1CCC23CC12CCC1[C@@]2(C)CCC(O)C(C)(C)C2CC(OC2OC(CO)C(O)C(O)C2O)[C@]13C` (stereo not given in full), the TGI in the test with 786-0 renal, in the test with HCT-116 colon, in the test on HL-60(TB) leukemia, in the test on HOP-62 NSCLC, in the test on HS 578T breast and in the test with MDA-MB-231 breast was greater than 10 µM in each case. Moreover, the TGI in the test with OVCAR-8 ovarian, with RXF 393 renal, in the test with SK-MEL-28 melanoma, with SN12C renal and in the test with SW-620 colon was greater than 10 µM throughout.
For the compound `O=C1N=C2SC=C(NC(=S)Nc3ccccc3)N2NC12c1ccccc1-c1ccccc12`, the TGI in the test with 786-0 renal, with HCT-116 colon, in the test on HL-60(TB) leukemia, in the test on HOP-62 NSCLC, with HS 578T breast and with MDA-MB-231 breast was greater than 10 µM throughout. Also, the TGI in the test on OVCAR-8 ovarian, with RXF 393 renal, with SK-MEL-28 melanoma, in the test with SN12C renal and with SW-620 colon was greater than 10 µM throughout.
